According to US11497740B2, “Use of Jumonji C demethylase inhibitors for the treatment and prevention of chemotherapy resistance and radioresistance in cancer” (THE BOARD OF REGENTS OF THE UNIVERSITY OF TEXAS SYSTEM, priority 2016, dated 2022):

Assays:
Type in all cases: cell-based, Human
[1] = system: DNA-PKcs; assay: DNA-PKcs p-T2609 foci kinetics after IR; settings: H1299; JIB-04 16 nM 4 h, 10 Gy
Procedure: NSCLCs were seeded onto Lab-Tek II Chamber Slides (Thermo Fisher) and 24 hours later pretreated with JIB-04 or DMSO for 4 h. Then cells were exposed to a total dose of 2 Gy (γH2AX and 53BP1) or 10 Gy (RAD-51 and DNAPKcs p-T2609) radiation. For knockdown and overexpression experiments H1299 cells were transfected using the Amaxa Nucleofector; program X-005. Specifically, 3×10^6 were transfected with siRNA duplexes targeting JMJD2A, JMJD2B, Jarid1A, Jarid1b, scrambled siRNA (250 nM final concentration) or expression vectors pCMVHA-JMJD2A, pCMVHA-JMJD2B, pCMVHA-Jarid1A, pCMVHA-Jarid1B, PC-2 for 72 hours, followed by quantification of expression or irradiation. Then, cells were fixed in 4% formaldehyde/PBS for 15 min, permeabilized with 0.5% Triton X-100 for 15 min on ice, and blocked with 5% bovine serum albumin in PBS for 1 h. The slides were incubated with an antibody against phospho-Histone γH2AX (1:1000, 3 h at room temperature), 53BP1 (1:500, 3 h at room temperature), Rad-51 (1:500, 48 hs 4° C.) or DNAPKcs p-T2609 (1:500, 48 hs 4° C.). Alexa Fluor 488-conjugated goat anti-Rabbit, […] goat anti-mouse or rhodamine red-conjugated goat anti-mouse secondaries antibodies were used (1:1000, 1 h at room temperature). […] Cells were analyzed on a Zeiss upright fluorescent microscope.

[2] = system: H3K4me3 demethylase Jumonji enzymes; assay: Histone demethylase activity in H1299 cellular extracts (H3K4me3); settings: JIB-04 4 h
Procedure: For Histone demethylase activity determination 2×10^6 H1299 cells were seeded in P150 plates. After 24 h cells were pretreated with JIB-04 or DMSO for 4 h, irradiated with a total dose of 8 Gy of radiation. Then cells were sonicated (3×4 sec) and equal amounts of protein were incubated with a histone H3K4me3 or H3K9me3 substrate in a reaction buffer containing cofactors for 1 h at 37° C. Finally specific immune-detection of the H3K4me2 or H3K9me2 product using the Epigentek kit P-3081 for H3K9me3 demethylation and P-3083 for H3K4me3 demethylation. Background readings were given by heat inactivated extracts.

[3] = system: H3K4me3 at DSBs; assay: γH2AX immunoprecipitation, H3K4me3 at DSBs; settings: JIB-04 4 h, IR 20 Gy
Procedure: For Histone demethylase activity determination 10×10^6 H1299 cells were seeded in P150 plates. Next day cells were preincubated with JIB-04 for 4 h and then irradiated with 20 Gy. Media was removed from cells, washed with PBS and fixed with 3% w/v PFA, 2% w/v sucrose in PBS for 1 min. Then cells were washed, scraped into media, pelleted by centrifugation (at 500 g for 2 min) and washed with Phosphatase inhibitor 1×, 1 μM Wortmannin (WM) and protease inhibitors 1× (Sigma). Cell pellets were re-suspended in 2.5× the packed cell volume (PCV) of Nucleosome Preparation Buffer (NPB, 10 mM HEPES [pH 7.9], 10 mM KCl, 1.0 mM CaCl2, 1.5 mM MgCl2, 0.34 M sucrose, 10% glycerol, 1 mM DTT, 0.1% Triton X-100) containing Phosphatase inhibitor, 1 μM Wortmannin (WM) and protease inhibitors (Sigma) and 100 U ml-1 micrococcal nuclease (MNase) and incubated at […] for 45 min (note: WM is required to block in vitro DNA-PK/ATM activation by MNase-produced DSBs). An equal volume of Nucleosome Solubilization Buffer (NSB=Nucleosome preparation buffer+2% [v/v] NP-40, 2% [v/v] Triton X-100, 600 mM NaCl) was then added. Samples were then vortexed, sonicated briefly and centrifuged at 10,000 rpm for 10 min. […] Protein levels on samples were quantified and equal amounts of protein run on 4-12% SDS acrylamide gels. […] Quantification was done using the using ImageJ software (National Institute of Health, NIH)

[4] = system: homologous recombination (HR); assay: Green fluorescent protein HR reporter assay, H1299; settings: H1299 cells with integrated construct
Procedure: The green fluorescent protein assay was performed as described by Seluanov et al. To generate reporter cell lines 2 million H1299 cells were transfected with 0.5 μg of linearized NHEJ-I, or HR reporter constructs using the Amaxa Nucleofector; program X-005. G418, at 1 mg/ml, was added to the media 1 day post-transfection. Then Transient expression of the I-SceI endonuclease was used to generate a DNA DSB at the integrated GFP gene sequences. Briefly, H1299 cells containing the NHEJ or the HR constructs treated by 4 h with JIB-04 or DMSO were transfected with the pCMV3xnls-I-SceI (5 μg, functional endonuclease) and a pN1-mCherry plasmid (0.05 μg) as transfection control as previously stated. For the analysis of NHEJ and HR cells were harvested, resuspended in ˜1 ml 1×PBS, put on ice, and run on a BD FACScan instrument. GFP and mCherry fluorescence was analyzed using FlowJo software. Red-versus-green was plotted and DNA repair efficiency was calculated from the number of GFP-positive cells divided by the number of cells mCherry-positive cells.

[5] = system: radioresistant (HCC95, HCC1195 and HCC2279) NSCLC cell lines; assay: Clonogenic survival with IR, radioresistant NSCLC lines; settings: all radioresistant NSCLC lines tested
Procedure: Cells were serially diluted to appropriate concentrations and plated into 60-mm dish in triplicate for 4 h. Then cells were treated with the indicated drugs, and irradiated 4 hours later with graded doses of radiation for concurrent treatment or irradiated and 4 hours later the drugs added for post-treatment. All cells were irradiated at room temperature in ambient air using a 137Cs source (Mark 1-68 irradiator, JL Shepherd & Associated). Surviving colonies were stained with crystal violet approximately 10 to 14 days later and colonies formed with more than 50 cells were counted. Clonogenic fraction of irradiated cells was normalized to the plating efficiency of unirradiated controls. The data are presented as the mean±SD. The curve S=e^−(αD+βD2) was fitted to the experimental data using a least square fit algorithm using the program Sigma Plot 11.0 (Systat Software, Inc.).

SMILES: Clc1ccc(N/N=C(\c2ccccc2)c2ccccn2)nc1 [JIB-04]
- DNA-PKcs foci resolution [1]: majority of DNA-PKcs foci remained unresolved even 24 h post irradiation
- DNA-PKcs recruitment to DSBs [1]: robust deficiency in DNA-PKcs recruitment with foci not forming until 6 h post IR
- IR-increased H3K4me3 demethylase activity ([2]; IR 8 Gy, 15 min after radiation): blocked this increased activity
- basal H3K4me3 demethylase activity ([2]; no IR): did not have any effects on basal activity
- H3K4me3 at sites of DNA damage marked by γH2AX [3]: increased H3K4me3
- HR repair efficiency [4]: ≤ 50 % of normal levels
- survival fraction at 2 Gy of radiation (SF2) [5]: decreasing the survival fraction at 2 Gy of radiation (SF2)
